Test results from ChEMBL document CHEMBL1833969, “Synthesis and antigastric ulcer activity of novel 5-isoproyl-3,8-dimethylazulene derivatives” (2011).

Key:
Assay type in all cases: functional
Conditions in all cases: Stomach
[1] = tested on: Mus musculus; experiment: Antiulcerogenic activity in Kunming mouse assessed as inhibition of ethanol-induced gastric ulcer at 4.6 mg/kg, po qd for 5 days measured 1 hr post last dose relative to control
[2] = tested on: Mus musculus; experiment: Antiulcerogenic activity in Kunming mouse assessed as inhibition of ethanol-induced gastric ulcer at 3.2 mg/kg, po qd for 5 days measured 1 hr post last dose relative to control
[3] = tested on: Mus musculus; experiment: Antiulcerogenic activity in Kunming mouse assessed as inhibition of ethanol-induced gastric ulcer at 3.3 mg/kg, po qd for 5 days measured 1 hr post last dose relative to control
[4] = tested on: Mus musculus; experiment: Antiulcerogenic activity in Kunming mouse assessed as inhibition of ethanol-induced gastric ulcer at 4.3 mg/kg, po qd for 5 days measured 1 hr post last dose relative to control
[5] = tested on: Mus musculus; experiment: Antiulcerogenic activity in Kunming mouse assessed as inhibition of ethanol-induced gastric ulcer at 3.7 mg/kg, po qd for 5 days measured 1 hr post last dose relative to control
[6] = tested on: Mus musculus; experiment: Antiulcerogenic activity in Kunming mouse assessed as inhibition of ethanol-induced gastric ulcer at 4.5 mg/kg, po qd for 5 days measured 1 hr post last dose relative to control
[7] = tested on: Mus musculus; experiment: Antiulcerogenic activity in Kunming mouse assessed as inhibition of ethanol-induced gastric ulcer at 4.1 mg/kg, po qd for 5 days measured 1 hr post last dose relative to control
[8] = tested on: Mus musculus; experiment: Antiulcerogenic activity in Kunming mouse assessed as inhibition of ethanol-induced gastric ulcer at 3.1 mg/kg, po qd for 5 days measured 1 hr post last dose relative to control
[9] = tested on: Mus musculus; experiment: Antiulcerogenic activity in Kunming mouse assessed as inhibition of ethanol-induced gastric ulcer at 3.9 mg/kg, po qd for 5 days measured 1 hr post last dose relative to control
[10] = tested on: Mus musculus; experiment: Antiulcerogenic activity in Kunming mouse assessed as inhibition of ethanol-induced gastric ulcer at 4.7 mg/kg, po qd for 5 days measured 1 hr post last dose relative to control
[11] = tested on: Mus musculus; experiment: Antiulcerogenic activity in Kunming mouse assessed as inhibition of ethanol-induced gastric ulcer at 3 mg/kg, po qd for 5 days measured 1 hr post last dose relative to control
[12] = tested on: Mus musculus; experiment: Antiulcerogenic activity in Kunming mouse assessed as inhibition of ethanol-induced gastric ulcer at 13.4 mg/kg, po qd for 5 days measured 1 hr post last dose relative to control
[13] = tested on: Mus musculus; experiment: Antiulcerogenic activity in Kunming mouse assessed as inhibition of ethanol-induced gastric ulcer at 4 mg/kg, po qd for 5 days measured 1 hr post last dose relative to control
[14] = tested on: Mus musculus; experiment: Antiulcerogenic activity in Kunming mouse assessed as inhibition of ethanol-induced gastric ulcer at 3.6 mg/kg, po qd for 5 days measured 1 hr post last dose relative to control

Question: For Cc1cc(S(=O)(=O)Nc2ccc(/N=C/c3cccs3)cc2)c2c(C)ccc(C(C)C)cc1-2, which inhibition in vivo at 4.6 mg/kg [1] is on record?
Answer: 50.2%

Question: Cc1cc(S(=O)(=O)NC(C)C)c2c(C)ccc(C(C)C)cc1-2 was tested. Which inhibition in vivo at 3.2 mg/kg [2] did it give?
Answer: 18.7%

Question: For Cc1cc(S(=O)(=O)NCC(C)C)c2c(C)ccc(C(C)C)cc1-2, which inhibition in vivo at 3.3 mg/kg [3] is on record?
Answer: 33.9%

Question: Which inhibition in vivo at 3.2 mg/kg [2] does the source give for CCCNS(=O)(=O)c1cc(C)c2cc(C(C)C)ccc(C)c1-2 here?
Answer: 33%

Question: With Cc1cc(S(=O)(=O)Nc2cccc(Br)c2)c2c(C)ccc(C(C)C)cc1-2 as the compound, how does the inhibition in vivo at 4.3 mg/kg [4] read?
Answer: 51.3%

Question: With Cc1ccc(NS(=O)(=O)c2cc(C)c3cc(C(C)C)ccc(C)c2-3)cc1 as the compound, how does the inhibition in vivo at 3.7 mg/kg [5] read?
Answer: 23.1%

Question: Cc1cc(S(=O)(=O)N/N=C\c2ccc(C(F)(F)F)cc2)c2c(C)ccc(C(C)C)cc1-2 was tested. Which inhibition in vivo at 4.5 mg/kg [6] did it give?
Answer: 24.8%

Question: COc1ccc(/C=N\NS(=O)(=O)c2cc(C)c3cc(C(C)C)ccc(C)c2-3)cc1 was tested. Which inhibition in vivo at 4.1 mg/kg [7] did it give?
Answer: 4.08%

Question: With Cc1cc(S(=O)(=O)Nc2ccc(N)cc2)c2c(C)ccc(C(C)C)cc1-2 as the compound, how does the inhibition in vivo at 3.1 mg/kg [8] read?
Answer: 45.2%

Question: How did the inhibition in vivo at 3.9 mg/kg [9] turn out when Cc1cc(S(=O)(=O)Nc2ccc(Cl)cc2)c2c(C)ccc(C(C)C)cc1-2 was run?
Answer: 24.8%

Question: Cc1cc(S(=O)(=O)Nc2ccc(/N=C/c3ccccc3O)cc2)c2c(C)ccc(C(C)C)cc1-2 was tested. Which inhibition in vivo at 4.7 mg/kg [10] did it give?
Answer: 28.7%

Question: With Cc1cc(S(=O)(=O)O)c2c(C)ccc(C(C)C)cc1-2 [SODIUM GUALENATE] as the compound, how does the inhibition in vivo at 3 mg/kg [11] read?
Answer: 32.6%

Question: How did the inhibition in vivo at 13.4 mg/kg [12] turn out when COc1ccc2[nH]c([S+]([O-])Cc3ncc(C)c(OC)c3C)nc2c1 (stereo unspecified) [OMEPRAZOLE] was run?
Answer: 36.7%

Question: Which inhibition in vivo at 4 mg/kg [13] does the source give for Cc1cc(S(=O)(=O)Nc2cccc3ccccc23)c2c(C)ccc(C(C)C)cc1-2 here?
Answer: 50.5%

Question: Which inhibition in vivo at 4.6 mg/kg [1] does the source give for Cc1cc(S(=O)(=O)Nc2ccc(/N=C/c3ccccc3)cc2)c2c(C)ccc(C(C)C)cc1-2 here?
Answer: 17.1%

Question: Which inhibition in vivo at 4 mg/kg [13] does the source give for Cc1cc(S(=O)(=O)N/N=C\c2ccccc2O)c2c(C)ccc(C(C)C)cc1-2 here?
Answer: 12.2%

Question: How did the inhibition in vivo at 3.9 mg/kg [9] turn out when Cc1cc(S(=O)(=O)N/N=C\c2cccs2)c2c(C)ccc(C(C)C)cc1-2 was run?
Answer: 30.7%

Question: How did the inhibition in vivo at 3.6 mg/kg [14] turn out when Cc1cc(S(=O)(=O)NC2CCCCC2)c2c(C)ccc(C(C)C)cc1-2 was run?
Answer: 50.9%

Question: With Cc1cc(S(=O)(=O)NCc2ccccc2)c2c(C)ccc(C(C)C)cc1-2 as the compound, how does the inhibition in vivo at 3.7 mg/kg [5] read?
Answer: 2.46%

Question: CCNS(=O)(=O)c1cc(C)c2cc(C(C)C)ccc(C)c1-2 was tested. Which inhibition in vivo at 3.1 mg/kg [8] did it give?
Answer: 24.1%

Question: How did the inhibition in vivo at 4.1 mg/kg [7] turn out when COc1ccc(NS(=O)(=O)c2cc(C)c3cc(C(C)C)ccc(C)c2-3)c(OC)c1 was run?
Answer: 52.8%
